Reference: the NIST ThermoML archive (doi:10.1021/je900974u)

How the values were obtained:
[1] = molar heat capacity at constant pressure; conditions: 101.33 kPa, Liquid, Vacuum adiabatic calorimetry
[2] = for Triple point temperature: Crystal; for mass density: 101.33 kPa, Liquid, Pycnometric method
[3] = Molar enthalpy of transition or fusion; conditions: Crystal; Adiabatic calorimetry

CCOS(=O)(=O)[O-].CCn1cc[n+](C)c1 [1-ethyl-3-methylimidazolium ethyl sulfate]
[1]
Conditions	molar heat capacity at constant pressure [J/K/mol]
191.13 K	354.4
193.05 K	354.6
194.98 K	354.9
196.91 K	355.1
198.84 K	355.3
200.77 K	355.7
202.71 K	355.9
204.64 K	356.3
206.57 K	356.6
208.5 K	356.9
210.44 K	357.2
212.37 K	357.5
214.3 K	357.9
216.24 K	358.3
218.18 K	358.7
220.11 K	359.2
222.05 K	359.6
223.98 K	360.1
225.92 K	360.4
227.86 K	360.9
229.8 K	361.4
231.74 K	362.1
233.68 K	362.5
235.62 K	363
237.56 K	363.5
239.5 K	364
241.43 K	364.6
243.37 K	365.1
245.32 K	365.6
247.26 K	366.2
249.2 K	366.8
251.14 K	367.4
253.08 K	367.9
255.02 K	368.5
256.96 K	369.1
258.9 K	369.9
260.85 K	370.3
262.79 K	371
264.73 K	371.7
266.67 K	372.1
268.62 K	372.7
270.55 K	373.4
272.5 K	374.1
274.44 K	374.8
276.38 K	375.1
278.32 K	375.6
280.25 K	376.5
282.2 K	377
284.14 K	377.6
286.08 K	378.2
288.03 K	378.7
289.97 K	379.4
291.91 K	380.2
293.85 K	381
295.79 K	381.9
297.74 K	382.6
299.68 K	383.5
301.62 K	384.2
303.56 K	385
305.51 K	385.9
307.45 K	386.7
309.39 K	387.5
311.33 K	388.6
313.28 K	389.5
315.22 K	390.4
317.16 K	391.4
319.11 K	392.2
321.05 K	393.2
322.99 K	394
324.93 K	395
326.88 K	395.9
328.82 K	396.9
330.77 K	397.7
332.71 K	398.5
334.66 K	399.7
336.6 K	400.5
338.54 K	401.4
340.49 K	402.7
342.43 K	403.5
344.38 K	404.4
346.32 K	405.7
348.27 K	406.7
350.21 K	407.8
352.15 K	408.8
354.1 K	409.7
356.04 K	410.8
357.98 K	411.9
359.92 K	412.8
361.86 K	413.9
363.8 K	414.9
365.75 K	415.9
367.69 K	416.8

CCCCCCCC[n+]1ccn(C)c1.F[B-](F)(F)F [1-methyl-3-octylimidazolium tetrafluoroborate]
Conditions	Molar enthalpy of transition or fusion [kcal/mol]	Triple point temperature [K]
[2]	–	245.75
[3]	3.513	–

[1]
Conditions	molar heat capacity at constant pressure [J/K/mol]
195.88 K	466.3
197.4 K	465.8
198.93 K	465.5
200.46 K	464.9
202.1 K	464.6
203.86 K	464.1
205.61 K	463.8
207.37 K	463.5
209.14 K	463.2
210.91 K	463.2
212.69 K	463.2
214.47 K	463.2
216.25 K	463.5
218.04 K	463.5
218.59 K	463.5
219.83 K	463.8
220.61 K	463.8
221.62 K	464.1
222.57 K	464.1
223.42 K	464.4
224.52 K	464.6
225.22 K	464.6
226.48 K	464.9
227.02 K	464.9
228.43 K	465.5
228.83 K	465.5
230.39 K	466.1
230.63 K	466.3
232.35 K	466.3
234.3 K	466.6
236.26 K	467.5
238.22 K	468
240.18 K	468.6
242.14 K	469.4
244.1 K	470.3
246.06 K	470.8
247.53 K	471.7
248.02 K	471.7
249.36 K	472.5
249.99 K	472.5
251.18 K	473.1
251.95 K	473.4
253 K	473.7
253.91 K	474.2
254.83 K	474.5
255.87 K	475.1
256.65 K	475.4
257.83 K	476.2
258.48 K	476.2
260.3 K	477.3
262.13 K	478.2
263.95 K	479
265.78 K	480.1
267.6 K	481
269.43 K	482.1
271.26 K	483
273.08 K	483.8
274.91 K	484.6
276.74 K	486.1
278.57 K	486.9
280.39 K	488
282.22 K	488.9
284.05 K	490
285.87 K	490.8
287.7 K	492
289.53 K	493.1
291.35 K	494.2
293.18 K	495.1
295 K	496.2
296.83 K	497.3
298.65 K	498.2
300.48 K	499.3
302.36 K	500.4
304.29 K	501.6
306.22 K	502.7
308.16 K	503.8
310.09 K	504.9
312.02 K	505.8
313.95 K	507.2
315.89 K	508.3
317.82 K	509.4
319.75 K	510.6
321.68 K	512
323.62 K	513.1
325.55 K	514.2
327.48 K	515.1
329.41 K	516.5
331.34 K	517.9
333.27 K	519.3
335.19 K	520.4
337.12 K	521.8
339.05 K	523
340.97 K	524.4
342.9 K	525.5
344.82 K	526.6
346.75 K	528
348.68 K	529.5
350.6 K	530.9
352.53 K	532.3
354.45 K	533.4
356.38 K	534.8
358.3 K	535.9
360.22 K	537.3
362.14 K	539
364.06 K	539.9
365.98 K	541.3
367.89 K	542.7

CCC[n+]1ccn(C)c1.[Br-] [1-methyl-3-propylimidazolium bromide]
Conditions	mass density [kg/m3]	molar heat capacity at constant pressure [J/K/mol]
[1], 222.57 K	–	260
[1], 224.61 K	–	260.5
[1], 226.66 K	–	260.8
[1], 228.71 K	–	261.3
[1], 230.76 K	–	261.7
[1], 232.81 K	–	262.1
[1], 234.85 K	–	262.7
[1], 236.9 K	–	263.1
[1], 238.95 K	–	263.5
[1], 241 K	–	264
[1], 243.05 K	–	264.4
[1], 245.1 K	–	264.9
[1], 247.15 K	–	265.4
[1], 249.2 K	–	266
[1], 251.25 K	–	266.5
[1], 253.31 K	–	267.1
[1], 255.36 K	–	267.6
[1], 257.41 K	–	268.2
[1], 259.46 K	–	268.8
[1], 261.51 K	–	269.5
[1], 263.56 K	–	270
[1], 265.62 K	–	270.6
[1], 267.67 K	–	271.2
[1], 269.72 K	–	271.8
[1], 271.77 K	–	272.5
[1], 273.82 K	–	273.2
[1], 275.87 K	–	273.8
[1], 277.92 K	–	274.5
[1], 279.98 K	–	275.1
[1], 282.03 K	–	275.8
[1], 284.08 K	–	276.4
[1], 286.13 K	–	277
[1], 288.18 K	–	277.8
[1], 290.23 K	–	278.4
[1], 292.28 K	–	279.1
[1], 294.33 K	–	279.7
[1], 296.39 K	–	280.4
[1], 298.44 K	–	281
[1], 300.49 K	–	281.7
[1], 302.54 K	–	282.4
[1], 304.59 K	–	283
[1], 306.64 K	–	283.7
[1], 308.7 K	–	284.4
[1], 310.75 K	–	285
[1], 312.8 K	–	285.7
[1], 314.85 K	–	286.4
[1], 316.91 K	–	287.1
[1], 318.96 K	–	287.7
[1], 321.01 K	–	288.5
[1], 323.07 K	–	289.2
[1], 325.12 K	–	289.8
[1], 327.18 K	–	290.6
[1], 329.23 K	–	291.4
[1], 331.28 K	–	292.1
[1], 333.34 K	–	292.9
[1], 335.39 K	–	293.6
[1], 337.45 K	–	294.3
[1], 339.5 K	–	295.1
[1], 341.56 K	–	295.9
[1], 343.61 K	–	296.7
[1], 345.67 K	–	297.3
[1], 347.73 K	–	298.2
[1], 349.78 K	–	299.2
[1], 351.84 K	–	299.9
[1], 353.9 K	–	300.7
[1], 355.95 K	–	301.4
[1], 358.01 K	–	302.2
[1], 360.06 K	–	303.1
[1], 362.12 K	–	303.8
[1], 364.17 K	–	304.6
[1], 366.23 K	–	305.4
[1], 368.28 K	–	306.3
[2], 302.71 K	1355.9	–
[2], 307.7 K	1352.4	–
[2], 312.7 K	1348.9	–
[2], 317.71 K	1345.4	–
[2], 322.7 K	1341.9	–
[2], 327.7 K	1338.5	–
[2], 332.7 K	1335	–
[2], 337.69 K	1331.6	–
[2], 342.68 K	1328.2	–
[2], 347.68 K	1324.9	–
[2], 352.67 K	1321.6	–
[2], 357.67 K	1318.3	–

Conditions	Molar enthalpy of transition or fusion [kcal/mol]	Triple point temperature [K]
[2]	–	309.56
[3]	4.589	–
